Measured values reported in patent publication US20090156674A1, “Valnemulin Salts with Organic Acids” (priority 2005, published 2009).
Structures can show the parent of a compound that is named as a salt.

Legend:
[1] = Stability of valnemulin during production and storage of feed pellets (background statements); format: physicochemical
Description: It has been shown that valnemulin is rather unstable when producing pelleted feed, particularly when in contact with the feed material, especially constituents of vegetable or animal origin. This leads to substantial losses already at the preparation stage. In the preparation of pelleted feed, the dried organic starting material of animal or vegetable origin is ground, mixed intimately with the admixtures, vitamins, trace elements and other additives, i.e. substantially homogenized, and then optionally moistened with ca. 5 to 10% by weight water and compressed into feed pellets at elevated temperatures ranging from ca. 60 to 100° C. at pressures of ca. 1 to 100 kbar. Short-term, local temperature peaks in the press, so-called flashes, even reach 200° C. for a short time. The retention time of the mass in the press is generally from ca. 5 to 180 seconds and depends inter alia on the size of the pellets.
Whereas valnemulin in the form of the dried, amorphous hydrochloride salt withstands these temperatures for a short time without significant decomposition and can be stored at room temperature even for a few months without any measurable loss of active ingredient, this active ingredient decomposes relatively rapidly under pressure and in intimate contact with animal or vegetable feed constituents and at the prevailing elevated temperatures. […]

[2] = Stability of valnemulin acid addition salts in the pelleting procedure for animal feed; format: physicochemical; conditions: pelleting at 75° C.; wheat-based animal feed; 100 ppm valnemulin in the feed
Method: In order to test the stability of the valnemulin acid addition salts in animal feed, the calculated amount of the acid addition salt (corresponding to a target dose of 100 ppm) is added to ca. 4 kg of wheat-based animal feed and mixed in a high-speed laboratory mixer for 60 seconds to form a first premix (PM1). The ca. 4 kg of premix PM1 is then transferred to a horizontal mixer and mixed with 21 kg of the same feed for a further 6 minutes to form a further premix (PM2). The ca. 25 kg of premix PM2 is transferred to a vertical mixer and intimately mixed with a further 175 kg of the same animal feed for 8 minutes, whereupon a homogeneous, treated mixture is obtained, which contains valnemulin concentrations corresponding to the target dose of 100 ppm. Prior to further processing, samples of ca. 100 g each are taken from the upper, centre and lower part of the medicinal feed mixture, in order to test its homogeneity. In addition, further samples are taken randomly for use in stability tests. The finished, treated medicinal feed is now ready for pelleting. […] The 200 kg of finished medicinal feed is then fed continuously into the pelleting press of the feed mill over the course of ca. 20 mins. Afterwards, the pellets are dried in batches in a continuous stream of air, and cooled. To examine the homogeneity of the pelleted medicinal feed, several samples of ca. 100 g each are taken at the start, middle and end of the pelleting process. In addition, samples are taken in a random order from each batch, in order to test the stability in storage. […] In the following table 1, by way of example, the stabilities of different acid addition salts of valnemulin in the pelleting procedure for the animal feed are compared.

SMILES	content of active ingredient in finished pellets on storage ([1]; finished pellets, room temperature, after three months)	active ingredient lost in compression into feed pellets ([1]; raised pressure and elevated temperature kept as short as possible, pellets immediately cooled to room temperature, contact with feed constituents)	Loss of active substance in the pelleting procedure, average loss [2] [%]
C=C[C@]1(C)C[C@@H](OC(=O)CSC(C)(C)CNC(=O)C(N)C(C)C)[C@]2(C)C(C)CC[C@]3(CCC(=O)C32)[C@@H](C)[C@@H]1O (some centres unmarked) [valnemulin, Valnemulin]	below 60%	one quarter to one third	
C=C[C@]1(C)C[C@@H](OC(=O)CSC(C)(C)CNC(=O)[C@H](N)C(C)C)[C@]2(C)[C@H](C)CC[C@]3(CCC(=O)[C@H]32)[C@@H](C)[C@@H]1O [valnemulin hydrochloride]			11.6
C=CC1(C)CC(OC(=O)CSC(C)(C)CNC(=O)C(N)C(C)C)C2(C)C(C)CCC3(CCC(=O)C32)C(C)C1O.O=C(O)C(O)C(O)C(=O)O [valnemulin D-hydrogen tartrate, Valnemulin D-Hydrogen Tartrate]			0.3
C=C[C@]1(C)C[C@@H](OC(=O)CSC(C)(C)CNC(=O)[C@H](N)C(C)C)[C@]2(C)[C@H](C)CC[C@]3(CCC(=O)[C@H]32)[C@@H](C)[C@@H]1O.O=C(O)/C=C/C(=O)O [valnemulin hydrogen fumarate, Valnemulin Hydrogen Fumarate]			0.2
